Assay results taken from the NIST ThermoML archive (doi:10.1016/j.jct.2009.07.001).

Experiment: excess molar enthalpy (molar enthalpy of mixing); xn = mol fraction of the nth substance listed
Settings: 298.15 K, 101 kPa, Liquid, Calvet calorimetry

CCCCCCCCCCO [decan-1-ol] + CCCCOCCCC
Settings	excess molar enthalpy [kcal/mol]
x1 = 0.0549	0.0829
x1 = 0.1045	0.13
x1 = 0.1508	0.159
x1 = 0.1992	0.18
x1 = 0.2491	0.194
x1 = 0.2975	0.204
x1 = 0.3443	0.207
x1 = 0.3964	0.208
x1 = 0.4484	0.214
x1 = 0.4966	0.199
x1 = 0.5428	0.186
x1 = 0.5887	0.175
x1 = 0.646	0.157
x1 = 0.6819	0.146
x1 = 0.7402	0.123
x1 = 0.7812	0.106
x1 = 0.8272	0.0825
x1 = 0.8767	0.0595
x1 = 0.9225	0.0356
